Broadly, the EC50 is the concentration giving half of the maximal effect.

Each structure is given as a SMILES string. Records with an inconclusive call do not appear. Where a SMILES comes first, the peptide text is derived from it.

The test system of this assay is mutant SOD1 cell death rescue, 1 uM. Briefly: protection from mutant SOD1-driven cell killing (AID 1601).
Turning to `CC(C)COCC(CN(Cc1ccccc1)c1ccccc1)N1CCCC1` (centres undefined), the concentration for a half-maximal effect (EC50) was 1000 nM.

Regarding `Cc1cc(C(C)(C)CC(C)(C)C)ccc1OCCOCC[N+](C)(C)Cc1ccccc1`, the EC50 is 100 nM.

Regarding `CC(C)NCC(O)c1ccc(O)c(O)c1` (centres undefined), the concentration for a half-maximal effect (EC50) is 1000 nM.

Consider `CC[C@@H](CO)NCCN[C@@H](CC)CO`, for which the EC50 was 2900 nM.

On to `CC(=O)NS(=O)(=O)c1ccc(N)cc1`, for which the EC50 is 2100 nM.

`CC[C@H]1OC(=O)[C@H](C)[C@@H](O[C@H]2C[C@@](C)(OC)[C@@H](O)[C@H](C)O2)[C@H](C)[C@@H](O[C@@H]2O[C@H](C)C[C@H](N(C)C)[C@H]2O)[C@](C)(O)C[C@@H](C)CN(C)[C@H](C)[C@@H](O)[C@]1(C)O`: the concentration for a half-maximal effect (EC50) is 900 nM.

For `CC(C)=CCC/C(C)=C/CO`, the EC50 is 1200 nM.

With `CCCC(CCC)C(=O)O`, the concentration for a half-maximal effect (EC50) was 700 nM.

For the compound `NCCCCC(N)C(=O)NC(Cc1c[nH]c2ccccc12)C(=O)NC(CCCCN)C(=O)O` (stereo not drawn) (H-Lys-Trp-Lys-OH; configuration not given here), the EC50 is 8600 nM.

These data come from PubChem BioAssay AID1601.
